# Test results taken from patent US20250282799A1, “SUBSTITUTED PYRIDO[4,3-d]PYRIMIDINES AS KRAS MODULATORS” (Alterome Therapeutics, Inc., priority 2023, published 2025).
# System: KRAS G12V dependent lung adenocarcinoma cell line, NCI-H441
# Experiment: Cellular pERK (Thr202/Tyr204) FRET/HTRF assay
# Format: cell-based
# Conditions: Homo sapiens, NCI-H441, cellular pERK (Thr202/Tyr204) HTRF, NCI-H441 cells
# Description: “Ras” refers to a protein in the Ras superfamily of small GTPases, such as in the Ras subfamily. […] The Ras proteins play a critical role in the regulation of cell behaviors, including proliferation, differentiation, and survival. […] KRAS G12V, G12D, and G12S variants are common in human cancers and Ras inhibitors binding in or near the Switch II pocket may provide mutant binding selectivity. RAS mutations are known to be often associated with pancreatic, colorectal and non-small-cell lung carcinomas (Lone, A. M. et al. J. Am. Chem. Soc. 2011,133, 11665-74, which is entirely incorporated herein by reference; Dillon, M. B.; Bachovchin, D. A.; Brown, S. J.; Finn, M. G.; Rosen, H.; Cravatt, B. F.; Mowen, K. A. ACS Chem. Biol. 2012, 7, 1198-204, which is entirely incorporated herein by reference; Bachovchin, D. A.; Brown, S. J.; Rosen, H.; Cravatt, B. F. Nat. Biotechnol. 2009, 27, 387-94, Ostrem, J. M.; Peters, U.; Sos, M. L.; Wells, J. A.; Shokat, K. M. Nature 2013, 503, 548-551. Ryan M. B. and Corcoran R. B, Nat. Rev Clin Onco. 2018, 11, 709-720.). Ras proteins are key members in the Ras/Raf/Mitogen-activated protein kinase (MAPK) signaling pathway. This pathway regulates a wide variety of cellular processes, including proliferation, differentiation, apoptosis, and stress responses. One way to measure the impact of an inhibitor of Ras proteins is to measure downstream phosphorylation of proteins in the MAPK pathway. The MAPK pathway includes extracellular signal-regulated kinases named ERK1 and ERK2, which are serine-threonine kinases that regulate cellular signaling under both normal and oncogenic conditions. ERK expression and hyperactivation via phosphorylation plays a major role in cancer progression and are downstream of Ras proteins. The assay used for measuring the downstream impact of Ras inhibition is the use of a highly sensitive cell-based readout of ERK phosphorylation (pERK) specifically on Threonine (Thr) 202 and Tyrosine (Tyr) 204 in a KRAS G12V dependent lung adenocarcinoma cell line, NCI-H441 (ATCC Cat #HTB-174). The assay described herein is suitable for assessing inhibition of Ras and can be tailored for any of the predominant oncogenic mutations in any isoform of Ras (e.g., KRAS, HRAS, and NRAS) by changing the cell line.
# pERK was measured using an advanced pERK assay designed for the robust and highly sensitive quantification of ERK phosphorylation on Thr202/Tyr204. This assay is intended for the simple, rapid, and direct detection of endogenous levels of ERK1/2 in cells, but only when ERK is phosphorylated at Thr202 and Tyr204 (Perkin Elmer Catalog #64AERPEH). pERK was detected in a FRET based sandwich assay format using 2 different specific antibodies, one labelled with Eu3+-Cryptate (donor) and the second with d2 (acceptor). When the dyes are in close proximity, the excitation of the donor with a light source (laser or flash lamp) triggers a Fluorescence Resonance Energy Transfer (FRET) towards the acceptor, which in turn fluoresces at a specific wavelength (665 nm). The specific signal modulates positively in proportion to p-ERK1/2 (Thr202/Tyr204). The simple mix-and-read protocol eliminates all wash steps for faster analysis and high-quality output. Briefly, cells were diluted to the desired concentration per well based on a growth curve showing ˜75% confluence within a 24-hour time period at no less than 95% viability. Cell suspension (24 μL) were added into each well of 384-well culture plate and maintained in 37° C. 5% CO2 incubator overnight prior to assay. All compounds were transferred to stock plates using TECAN (EVO200) liquid handler using DMSO as the solubilizing and dilution agent. Test compounds were transferred onto adherent cells using an Echo655 liquid handler. DMSO was employed as negative control. Cells were incubated with test compounds for 1 hr in a 37° C., 5% CO2 incubator following compound addition. […]
row,SMILES,IC50 [nM]
1,"C#Cc1c(F)ccc2cccc(-c3ncc4c(N5CCOC[C@H]6[C@H](F)[C@H]65)nc(OC[C@]56CC(=C)CN5CCC65CC5)nc4c3F)c12 [Example 166, (1S,7S,8S)-2-(7-(8-Ethynyl-7-fluoronaphthalen-1-yl)-8-fluoro-2-(((R)-6′-methylenetetrahydrospiro[cyclopropane-1,1′-pyrrolizin]-7a′(5′H)-yl)methoxy)pyrido[4,3-d]pyrimidin-4-yl)-8-fluoro-5-oxa-2-azabicyclo[5.1.0]octane]",< 50
2,"[2H]C([2H])(Oc1nc(N2CCCC[C@H]3[C@H](F)[C@H]32)c2cnc(-c3cncc4ccc(F)c(OC)c34)c(F)c2n1)[C@@]12CCCN1C[C@H](F)C2 [Example 98, 8-Fluoro-7-(6-fluoro-5-methoxyisoquinolin-4-yl)-4-((1S,7R,8S)-8-fluoro-2-azabicyclo[5.1.0]octan-2-yl)-2-(((2R,7aS)-2-fluorotetrahydro-1H-pyrrolizin-7a(5H)-yl)methoxy-d2)pyrido[4,3-d]pyrimidine]",< 50
3,"[2H]C([2H])([2H])Oc1c(F)c(F)c(F)c2cc(N)cc(-c3ncc4c(N5CCOC[C@H]6[C@H](F)[C@H]65)nc(OC[C@@]56CCCN5C/C(=C/F)C6)nc4c3F)c12 [Example 132, 6,7,8-trifluoro-4-(8-fluoro-4-((1S,7S,8S)-8-fluoro-5-oxa-2-azabicyclo[5.1.0]octan-2-yl)-2-(((S,E)-2-(fluoromethylene)tetrahydro-1H-pyrrolizin-7a(5H)-yl)methoxy)pyrido[4,3-d]pyrimidin-7-yl)-5-(methoxy-d3)naphthalen-2-amine]",< 50
4,"[2H]C([2H])(Oc1nc(N2CCCOC3C2C3(Cl)Cl)c2cnc(-c3cc(N)cc4ccc(F)c(C#C)c34)c(F)c2n1)[C@@]12CCCN1C[C@H](F)C2 (stereo partly drawn) [Example 292, 4-(4-(8,8-dichloro-2-oxa-6-azabicyclo[5.1.0]octan-6-yl)-8-fluoro-2-(((2R,7aS)-2-fluorotetrahydro-1H-pyrrolizin-7a(5H)-yl)methoxy-d2)pyrido[4,3-d]pyrimidin-7-yl)-5-ethynyl-6-fluoronaphthalen-2-amine]",50 to 500
5,"[2H]C([2H])(Oc1nc(N2CC[C@H](C#N)C[C@H]3[C@@H](F)[C@H]32)c2cnc(-c3cc(N)cc4ccc(F)c(C#C)c34)c(F)c2n1)[C@@]12CCCN1C[C@H](F)C2 [Example 310, (1S,5R,7R,8R)-2-(7-(3-amino-8-ethynyl-7-fluoronaphthalen-1-yl)-8-fluoro-2-(((2R,7aS)-2-fluorotetrahydro-1H-pyrrolizin-7a(5H)-yl)methoxy-d2)pyrido[4,3-d]pyrimidin-4-yl)-8-fluoro-2-azabicyclo[5.1.0]octane-5-carbonitrile]",50 to 500
6,"[2H]C([2H])(Oc1nc(N2CCOC[C@@H]3[C@@H](F)[C@@H]32)c2cc(Cl)c(-c3cc(N)cc(C4CC4)c3C(F)(F)F)c(F)c2n1)[C@@]12CCCN1C[C@H](F)C2 [Example 184, 3-(6-chloro-8-fluoro-4-((1R,7R,8R)-8-fluoro-5-oxa-2-azabicyclo[5.1.0]octan-2-yl)-2-(((2R,7aS)-2-fluorotetrahydro-1H-pyrrolizin-7a(5H)-yl)methoxy-d2)quinazolin-7-yl)-5-cyclopropyl-4-(trifluoromethyl)aniline]",500 to 10000
7,"C#Cc1c(F)ccc2cc(N)cc(-c3ncc4c(N5CCOC[C@@H]6[C@@H](Cl)[C@@H]65)nc(OC[C@@H]5CCCN5C)nc4c3F)c12 [Example 301, 4-(4-((1R,7R,8R)-8-chloro-5-oxa-2-azabicyclo[5.1.0]octan-2-yl)-8-fluoro-2-(((S)-1-methylpyrrolidin-2-yl)methoxy)pyrido[4,3-d]pyrimidin-7-yl)-5-ethynyl-6-fluoronaphthalen-2-amine]",50 to 500
8,"[2H]C([2H])(Oc1nc(N2CC[C@H](C#N)C[C@H]3[C@H](F)[C@H]32)c2cnc(-c3cc(N)cc4ccc(F)c(C#C)c34)c(F)c2n1)[C@@]12CCCN1C[C@H](F)C2 [Example 306, (1S,5R,7R,8S)-2-(7-(3-amino-8-ethynyl-7-fluoronaphthalen-1-yl)-8-fluoro-2-(((2R,7aS)-2-fluorotetrahydro-1H-pyrrolizin-7a(5H)-yl)methoxy-d2)pyrido[4,3-d]pyrimidin-4-yl)-8-fluoro-2-azabicyclo[5.1.0]octane-5-carbonitrile]",50 to 500
9,"[2H]C([2H])(Oc1nc(N2CCCC[C@H]3[C@H](F)[C@H]32)c2cnc(-c3cccc4c(F)c(F)c(F)c(C#C)c34)c(F)c2n1)[C@@]12CCCN1C[C@H](F)C2 [Example 111, 7-(8-ethynyl-5,6,7-trifluoronaphthalen-1-yl)-8-fluoro-4-((1S,7R,8S)-8-fluoro-2-azabicyclo[5.1.0]octan-2-yl)-2-(((2R,7aS)-2-fluorotetrahydro-1H-pyrrolizin-7a(5H)-yl)methoxy-d2)pyrido[4,3-d]pyrimidine]",500 to 10000
10,"[2H]C([2H])(Oc1nc(N2CCCO[C@H]3[C@H](F)[C@H]32)c2cnc(-c3cc(N)cc4c(F)cc(F)c(C#C)c34)c(F)c2n1)[C@@]12CCCN1C[C@H](F)C2 [Example 117, 5-ethynyl-6,8-difluoro-4-(8-fluoro-4-((1R,7S,8R)-8-fluoro-2-oxa-6-azabicyclo[5.1.0]octan-6-yl)-2-(((2R,7aS)-2-fluorotetrahydro-1H-pyrrolizin-7a(5H)-yl)methoxy-d2)pyrido[4,3-d]pyrimidin-7-yl)naphthalen-2-amine]",< 50

# Same assay, conditions: Homo sapiens, NCI-H441, cellular pERK HTRF, NCI-H441 (KRAS G12V) cells
row,SMILES,IC50 [nM]
1,"[2H]C([2H])(Oc1nc(N2CCCC[C@H]3[C@H](F)[C@H]32)c2cnc(-c3cc(O)cc4ccc(F)c(C#C)c34)c(C)c2n1)[C@@]12CCCN1[C@H](C)[C@H](F)C2 [Example 473, 5-ethynyl-6-fluoro-4-(2-(((2R,3R,7aS)-2-fluoro-3-methyltetrahydro-1H-pyrrolizin-7a(5H)-yl)methoxy-d2)-4-((1S,7R,8S)-8-fluoro-2-azabicyclo[5.1.0]octan-2-yl)-8-methylpyrido[4,3-d]pyrimidin-7-yl)naphthalen-2-ol]",< 50
2,"[2H]C([2H])(Oc1nc(N2CCCC[C@H]3[C@H](F)[C@H]32)c2cnc(-c3cc(O)cc4ccc(F)c(C#C)c34)c(C)c2n1)[C@@]12CCCN1C[C@H](F)C2 [Example 463, 5-Ethynyl-6-fluoro-4-(4-((1S,7R,8S)-8-fluoro-2-azabicyclo[5.1.0]octan-2-yl)-2-(((2R,7aS)-2-fluorotetrahydro-1H-pyrrolizin-7a(5H)-yl)methoxy-d2)-8-methylpyrido[4,3-d]pyrimidin-7-yl)naphthalen-2-ol]",< 50

# Same assay, conditions: Homo sapiens, NCI-H441, pERK HTRF, NCI-H441 cells (KRAS G12V)
row,SMILES,IC50 [nM]
1,"[2H]C1([2H])CCO[C@H]2C[C@H]2N1c1nc(OC([2H])([2H])[C@@]23CCCN2C[C@H](F)C3)nc2c(F)c(-c3cc(N)cc4cc(F)c(F)c(C#C)c34)ncc12 [Example 25, 4-(4-((1S,7R)-2-Oxa-6-azabicyclo[5.1.0]octan-6-yl-5,5-d2)-8-fluoro-2-(((2R,7aS)-2-fluorotetrahydro-1H-pyrrolizin-7a(5H)-yl)methoxy-d2)pyrido[4,3-d]pyrimidin-7-yl)-5-ethynyl-6,7-difluoronaphthalen-2-amine]",< 50
